One data set deals with neutrophils. Briefly: Test for examining cell adhesion-inhibitory effect (TNF-α-stimulated neutrophil adhesion to keyhole limpet hemocyanin-coated plate, Alamar blue fluorescence). It is filed as cell-based, human (healthy person). The note with it: 0.5 h, human neutrophils stimulated with TNF-α 10 ng/mL, 37° C. 30 minutes, Probit technique, read-out: IC50 (50%-inhibitory concentration of cell adhesion). Here is the method: To a 96-well culture plate coated, in advance, with keyhole limpet hemocyanin, there was added 0.05 mL each of a solution of a candidate test compound in dimethylsulfoxide diluted to a final dimethylsulfoxide concentration of 1% with DMEM. A blood sample was collected from a healthy person through the median vein of elbow and the neutrophils were fractionated or isolated through the use of Mono-Poly Separation Liquid and the centrifugation. The fractionated neutrophils were suspended in DMEM to a concentration of 1×10^6 cells/mL and 0.1 mL of the resulting neutrophil-containing suspension was added to each well of the culture plate. Moreover, 40 ng/mL of tumor-necrosis factor (TNF)-α was diluted with DMEM to a final concentration of 10 ng/mL and 0.05 mL of the resulting diluted solution was added to each well of the culture plate. After the culture plate was allowed to stand at 37° C. for 30 minutes in a CO2-incubator, the plate was washed three times (thrice) with 0.2 mL of phosphate-buffered physiological saline (PBS(−), available from GIBCO Corporation). In addition, to each well, there was added 0.1 mL of a 10% solution of Alamar blue in DMEM, the culture plate was allowed to stand at 37° C. for 3 hours in a CO2-incubator, and then the intensity of fluorescent rays emitted from the adhered neutrophil cells was determined (Ex: 544 nm; Em: 590 nm). In this respect, the sample group free of any stimulation was defined to be the non-adhesion control group and the sample group stimulated with TNF-α was referred to as the adhesion control group to thus determine or calculate the cell adhesion-inhibitory rate of the compound of the present invention at each concentration, and the 50%-inhibitory concentration (IC50) was calculated from the cell adhesion-inhibitory rates thus determined according to the Probit technique. The same test procedures used above were repeated except for using different kinds of candidate compounds.
Background: The colour change of resazurin is a common sign of viable cells or microbes.

Data set [1] concerns neutrophil infiltration (MPO activity). The experiment in a line: Effect on zymosan-induced neutrophil infiltration (MPO activity of peritoneal fluid). It is filed as in vivo, ICR mice. The following applies: 30 mg/kg body weight orally, FIG. 1; for MPO activity with respect to the vehicle: 1 hour before intra-peritoneal zymosan, peritoneal fluid after 3 hours. Here is the method:
Each candidate compound was administered to 6-week-old male ICR mice, which had been fasted from the day before the initiation of this test. Each candidate compound was suspended in a 3% dimethylsulfoxide/carboxymethyl cellulose sodium solution and the resulting suspension was administered to the mice at a dose of 30 mg/kg body weight/10 mL. After the elapse of one hour, 1 mL of a 0.01% solution of zymosan in physiological saline was intra-peritoneally administered. After 3 hours, 5 mL of physiological saline was intra-peritoneally administered and the test animals were lightly massaged for 30 seconds. The abdominal wall of the test animals were slightly incised to thus collect the peritoneal fluid using a Pasteur pipette. Thereafter, the fluid thus recovered was centrifuged (at 20,000 g, for 20 minutes, at 4° C.), the resulting pellets were washed with a 50 mM sodium phosphate buffer (pH 6.0) and then again centrifuged. To the pellets thus recovered, there was added 0.5% hexadecyl trimethyl ammonium bromide (HTAB) and then centrifuged to thus give a supernatant, which was subsequently used as an enzyme source. To 15 μL of the enzyme source, there were added 200 μL of a 1.154 mM o-di-anisidine and 50 μL of a 0.005% hydrogen peroxide solution and then the optical densities at 450 nm (OD450) were determined to thus calculate the difference: (OD450 observed after 90 seconds from the initiation of the reaction)−(OD450 observed after 30 seconds from the initiation of the reaction), which was herein defined to be MPO activity. In this connection, the MPO activity was calculated, while defining the activity required for increasing the OD450 value by 0.001 as one unit. The MPO activity is herein defined to be the activity of the enzyme present in the neutrophils and accordingly, the reduction in the MPO activity means the inhibition of the neutrophil-infiltration. The results thus obtained are plotted on FIG. 1. […]

Data set [2] in a line: Toxicity test by administration of one time (single dose). The following applies: mouse, in vivo. The source says: Test Animals Used: ICR Male Mice (5-Week-Old):
They were purchased and then preliminarily kept over one week, prior to the practical use thereof in this test.
Each test group comprised 5 animals.
Inspected Items: Appearance (such as death, weakening); Physical Conditions (such as the presence of lateral turning); Consciousness (such as excitation, lethargy (coma)); Behaviors (such as convulsions); Properties of fecal matters; and Foreign matters present in the urine.

Turning to `CC(=O)c1cn(-c2ccccc2)c(=O)c(Sc2ccc(F)cc2)c1C` [Compound 1, 5-acetyl-3-(4-fluorophenylthio)-4-methyl-1-phenyl-1H-pyridin-2-one], the IC50 in the data set on neutrophils was determined as 400 nM. The “MPO activity with respect to the vehicle” value in data set [1] was “decreases in the MPO activity”. Also, in data set [2], the “Result of single dose toxicity test (death, severe side-effect)” value is given as “All of the test animals were not died”.
One may read the melting point as the temperature, or range, at which the solid turns liquid. With `CC(=O)c1c[nH]c(=O)c(Sc2ccc(F)cc2)c1C` [Compound 42, 5-acetyl-3-(4-fluoro-phenylthio)-4-methyl-1H-pyridin-2-one], the melting point is 236 to 238 °C.
Consider `CC(=O)c1c(C)c(Sc2ccc(F)cc2)c(=O)n(-c2ccccc2)c1C` [Compound 62, 5-acetyl-3-(4-fluoro-phenylthio)-4,6-dimethyl-1-phenyl-1H-pyridin-2-one], for which the IC50 with neutrophils came to 569 nM. The “MPO activity with respect to the vehicle” value in data set [1] was “decreases in the MPO activity”. Besides, the neutrophil infiltration-inhibitory effect entry in data set [1] (zymosan-induced model) is reported as “excellent neutrophil infiltration-inhibitory effects”.
In turn, `CC(=O)c1cn(-c2ccccc2)c(=O)c(Br)c1C` [Compound 70, 5-acetyl-3-bromo-4-methyl-1-phenyl-1H-pyridin-2-one] returned a melting point of 166.5 to 167.4 °C.
The same measure, in the same setting: the same measure for `CC(=O)c1cn(-c2ccccc2)c(=O)c(C#N)c1C` [Compound 71, 5-acetyl-4-methyl-2-oxo-1-phenyl-1,2-di-hydro-pyridine-3-carbonitrile]: 215.4 to 216.8 °C; for `CC(=O)c1cn(-c2ccccc2)c(=O)c(Sc2ncccn2)c1C` [Compound 74, 5-Acetyl-4-methyl-1-phenyl-3-(pyrimidin-2-yl-thio)-1H-pyridin-2-one]: 184.5 to 185.3 °C.
In the case of `Cc1c(C(C)O)cn(-c2ccccc2)c(=O)c1Sc1ccc(F)cc1` (stereo not drawn) [Compound 77, 3-(4-Fluoro-phenylthio)-5-(1-hydroxyethyl)-4-methyl-1-phenyl-1H-pyridin-2-one], the IC50 with neutrophils was determined as 980 nM.
The molecule `CCc1cn(-c2ccccc2)c(=O)c(Sc2ccc(F)cc2)c1C` [Compound 80, 5-Ethyl-3-(4-fluoro-phenylthio)-4-methyl-1-phenyl-1H-pyridin-2-one] yielded a melting point of 116.8 to 118.7 °C.

Values taken from patent US20090298889A1, “PHARMACEUTICAL COMPOSITIONS CONTAINING 2-PYRIDONE DERIVATIVES AS EFFECTIVE COMPONENTS” (SATO PHARMACEUTICAL CO., LTD., priority 2005, published 2009).
